Test results published in patent US20260226026A1, “COMPOUND AS CTPS1 INHIBITOR” (Hangzhou Innogate Pharma Co., Ltd., priority 2023, published 2026).
Read-outs that look alike come from different tables or passages of the source.

How the values were obtained:
[1] = molecular target: T1, hCTPS1 enzyme (Homo sapiens, UniProt P17812); experiment: Inhibition of CTPS1 enzyme activity (ADP-Glo method); format: biochemical; details: hCTPS1, 90 min reaction at 25° C.
T1 sequence (P17812 1-591): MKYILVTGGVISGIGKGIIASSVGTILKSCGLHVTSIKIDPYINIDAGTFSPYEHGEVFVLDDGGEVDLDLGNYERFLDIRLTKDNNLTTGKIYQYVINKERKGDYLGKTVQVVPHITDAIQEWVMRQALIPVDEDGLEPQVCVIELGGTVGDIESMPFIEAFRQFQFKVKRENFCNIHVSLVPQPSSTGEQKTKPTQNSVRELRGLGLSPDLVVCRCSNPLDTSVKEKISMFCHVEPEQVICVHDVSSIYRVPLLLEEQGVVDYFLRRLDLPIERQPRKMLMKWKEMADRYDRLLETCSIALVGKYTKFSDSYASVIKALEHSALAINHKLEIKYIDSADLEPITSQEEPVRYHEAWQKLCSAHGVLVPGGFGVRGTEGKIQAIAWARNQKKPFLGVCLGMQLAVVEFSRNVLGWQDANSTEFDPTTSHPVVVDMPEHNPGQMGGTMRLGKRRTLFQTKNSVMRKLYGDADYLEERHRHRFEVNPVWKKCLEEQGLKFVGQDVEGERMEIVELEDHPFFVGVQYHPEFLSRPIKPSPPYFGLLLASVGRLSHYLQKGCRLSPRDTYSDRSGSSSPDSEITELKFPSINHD
Experimental: The enzyme activity of CTPS1 was tested using the ADP-Glo method. Compounds were serially diluted in DMSO with 3-fold gradients across ten concentrations. Transfer 0.1 μL of diluted compound to a 384-well plate, centrifuge at 1000 rpm for 1 min. Add 2.5 μL of hCTPS1 enzyme working solution, centrifuge at 1000 rpm for 1 min, and incubate at 25° C. for 10 min. Add 2.5 μL of ATP & UTP solution and incubate at 25° C. for 10 min. Add 5 μL of substrate solution to initiate the reaction and incubate at 25° C. for 90 min. Add 10 μL of ADP-Glo solution to the 384-well plate, centrifuge at 1000 rpm for 1 min, incubate at 25° C. for 40 min, add 20 μL of detection solution, centrifuge at 1000 rpm for 1 min, and incubate at 25° C. for 60 min. […] were read using a BMG microplate reader. Inhibition rate (%) was calculated as follows: Inhibition rate (%)=[(DMSO control well signal−Compound well signal)/(DMSO control well signal−Blank control well signal)]×100%. IC50 values for compounds were analyzed by nonlinear regression in XLFit 5.5.0 software using the formula: Y=Bottom+(Top−Bottom)/(1+10^((LogIC50−X)*HillSlope)) where Y is the inhibition rate and X is the log value of compound concentration.

[2] = in vivo; parameters: species or system SD rats; details: male, SD, rat, po
Experimental: Instrumentation: SCIEX Triple Quad 6500+ triple quadrupole liquid chromatography-mass spectrometry system (LC-MS/MS), operating software is Analyst 1.7.2 (Applied Biosystems, USA); ExionLC liquid chromatography system; Microsoft Excel was used for data calculation and processing. Pharmacokinetic parameters were calculated using the statistical moment method with WinNonlin 8.2 software. Key kinetic parameters included Tmax, T1/2, Cmax, AUC0-24 h etc. Column: Synergi 4 μm Fusion-RP 80 Å Luna C18 2 mm*50 mm, 4 μm; Column temperature: 40° C.; Mobile phase A: Water (0.1% formic acid); Mobile phase B: Acetonitrile; Flow rate: 0.8 mL/min; Gradient elution is adopted, the elution gradient is 0.10 min: 15% B; 1.60 min: 95% B; 1.90 min: 95% B; 1.91 min: 15% B; 2.20 min: 15% B. Injection volume: 1 μL.
Animals: 3 male SD rats with a weight range of 200-220 g were purchased and kept in the laboratory of the Experimental Animal Center for 3 days and then used. They were fasted for 12 hours predose and 4 hours after dosing. Drinking water was free during the test. After the rats were gavage, blood samples were taken according to the established time point.
Solvent: 0.4% ethanol+0.4% Tween80+99.2% (0.5% methylcellulose M450). Preparation of the solution for intragastric administration: Compounds were accurately weighed and added to the solvent. The mixture was then subjected to vortex mixing and sonication until a homogeneous suspension was achieved, thereby preparing medicinal solutions of the desired concentrations.
Compound samples: Typically, multiple structurally analogous compounds (with molecular weights differing by more than 2 units) were accurately weighed and administered together (cassette PK). This approach allows for the simultaneous screening of multiple compounds and comparison of their oral absorption rates. Single compound administration was also employed to study the pharmacokinetics of drug samples in rats.
After intragastric administration, blood was collected from the jugular vein at 0.25, 0.5, 1, 2, 4, 8, 10 and 24 hours. Transfer 20 μL of plasma sample (for blank samples and internal standard blank samples, add 20 μL of blank plasma) to a 1.5 mL centrifuge tube, add 200 μL of internal standard solution (50% methanol in acetonitrile (concentration 100 ng/mL)) (for Double blank samples, add 200 μL of 50% methanol in acetonitrile solution). Vortex the samples for 5 minutes, then centrifuge at 14000 rpm and 4° C. for 5 minutes. Transfer 80 μL and add to 80 μL of water, mix uniformly, and submit for LC-MS/MS analysis.
The compounds were accurately weighed to prepare different concentrations, and quantitative analysis on mass spectrometry was performed to establish a standard curve, and then the concentration of the above-mentioned compound in the plasma was tested to obtain its concentration at different time points. All measurement data were collected and processed by relevant software, and the statistical moment method was used to calculate the pharmacokinetic parameters (mainly including kinetic parameters Tmax, T1/2, Cmax, AUC0-24 h etc).

[3] = test system: Jurkat cells; experiment: Inhibition of Jurkat cell proliferation (CellTiter-Glo, 72 hours); format: cell-based; details: Homo sapiens
Experimental: Select Jurkat cells in good growth condition and digest them with trypsin. Add fresh culture medium, mix thoroughly, and centrifuge at 1000 rpm for 5 minutes. Seed the cells into a 96-well plate at a density of 10,000 cells per well, and incubate overnight in a 37° C. incubator. On the following day, take out of the culture plate and treat the cells with compounds prepared in a five-fold serial dilution. Return the plate to the 37° C. incubator and continue incubation for 72 hours.
After incubation, bring out the cell culture plate and equilibrate it to room temperature. Add 100 μL of CellTiter-Glo reagent to each well, shake in the dark for 2 minutes, and incubate for 10 minutes. Measure the luminescence using an Enspire plate reader. Calculate the inhibition rate using the following formula: Inhibition rate (%)=(1−(RLU_compound−RLU_blank)/(RLU_DMSO−RLU_blank))×100%. Plot the dose-response curve and calculate the IC50 value using XLFit.

[4] = Jurkat cells, 72 hours, CellTiter-Glo, read-out: Jurkat (IC50)

Compound | IC50 [1] [nM] | IC50 [3, 4] [nM] | also measured
CCOc1cncc(-c2ccc(NC(=O)C3(c4ccnc(NS(=O)(=O)C5CC5)n4)CCC(=C(F)F)CC3)nc2)n1 (stereo not drawn) [Compound 1] | < 25 | < 30 | AUC(0-t) ([2]; 3 mg/kg): 68800 ng·h/mL; Cmax ([2]; 3 mg/kg): 11300 ng/mL; Tmax ([2]; 3 mg/kg): 0.83 h; half-life ([2]; 3 mg/kg): 4.98 h
CCOc1cncc(-c2ccc(NC(=O)C3(c4ccnc(NS(=O)(=O)C5CC5)n4)CCC(=CCN4CCN(C)CC4)CC3)nc2)n1 (stereo not drawn) [Compound 13] | < 50 | < 50 | –
CCOc1cncc(-c2ccc(NC(=O)C3(c4ccnc(NS(=O)(=O)C5CC5)n4)CC(=CC(=O)OC)C3)nc2)n1 (stereo not drawn) [Compound 14] | < 50 | < 30 | –
CCOc1cncc(-c2ccc(NC(=O)C3(c4ccnc(NS(=O)(=O)C5CC5)n4)CCC(=CCN(C)C)CC3)nc2)n1 (stereo not drawn) [Compound 15] | < 100 | – | IC50 ([3]; Jurkat, 72 h, read-out: Jurkat (IC50, nM)): < 50 nM
CCOc1cncc(-c2ccc(NC(=O)C3(c4ccnc(NS(=O)(=O)C5CC5)n4)CCC(=CCN4CCCC4)CC3)nc2)n1 (stereo not drawn) [Compound 16] | < 50 | < 50 | –
C=CC(=O)N1CCC(C(=O)Nc2ccc(-c3cncc(OCC)n3)cn2)(c2ccnc(NS(=O)(=O)C3CC3)n2)CC1 [Compound 26] | < 50 | < 30 | AUC(0-t) ([2]; 3 mg/kg): 288 ng·h/mL; Cmax ([2]; 3 mg/kg): 118 ng/mL; Tmax ([2]; 3 mg/kg): 0.5 h; half-life ([2]; 3 mg/kg): 1.84 h
CCOc1cncc(-c2ccc(NC(=O)C3(c4ccnc(NS(=O)(=O)C5CC5)n4)CCC(=CCN4CC(OC)C4)CC3)nc2)n1 (stereo not drawn) [Compound 28] | < 50 | < 15 | AUC(0-t) ([2]; 3 mg/kg): 46.7 ng·h/mL; Cmax ([2]; 3 mg/kg): 33.1 ng/mL; Tmax ([2]; 3 mg/kg): 0.25 h; half-life ([2]; 3 mg/kg): 1.8 h
CCOc1cncc(-c2ccc(NC(=O)C3(c4ccnc(NS(=O)(=O)C5CC5)n4)CCN(C4CC(=C(F)F)C4)CC3)nc2)n1 (stereo not drawn) [Compound 31] | < 100 | < 50 | –
CCOc1cncc(-c2ccc(NC(=O)C3(c4ccnc(NS(=O)(=O)C5CC5)n4)CCC(=CC4CCOCC4)CC3)nc2)n1 (stereo not drawn) [Compound 32] | < 25 | < 15 | AUC(0-t) ([2]; 3 mg/kg): 15700 ng·h/mL; Cmax ([2]; 3 mg/kg): 4020 ng/mL; Tmax ([2]; 3 mg/kg): 0.83 h; half-life ([2]; 3 mg/kg): 1.34 h
CCOc1cncc(-c2ccc(NC(=O)C3(c4ccnc(NS(=O)(=O)C5CC5)n4)CCC(=CC4COC4)CC3)nc2)n1 (stereo not drawn) [Compound 36] | < 25 | < 5 | AUC(0-t) ([2]; 3 mg/kg): 6250 ng·h/mL; Cmax ([2]; 3 mg/kg): 3770 ng/mL; Tmax ([2]; 3 mg/kg): 0.25 h; half-life ([2]; 3 mg/kg): 2.8 h
CCOc1cncc(-c2ccc(NC(=O)C3(c4ccnc(NS(=O)(=O)C5CC5)n4)CCC(=C(F)CO)CC3)nc2)n1 (stereo not drawn) [Compound 39] | < 25 | < 15 | AUC(0-t) ([2]; 2 mg/kg): 1470 ng·h/mL; Cmax ([2]; 2 mg/kg): 837 ng/mL; Tmax ([2]; 2 mg/kg): 1.33 h; half-life ([2]; 2 mg/kg): 2.48 h
CCOc1cncc(-c2ccc(NC(=O)C3(c4ccnc(NS(=O)(=O)C5CC5)n4)CCC(=C(C)CO)CC3)nc2)n1 (stereo not drawn) [Compound 47] | < 25 | < 15 | AUC(0-t) ([2]; 2 mg/kg): 1410 ng·h/mL; Cmax ([2]; 2 mg/kg): 1820 ng/mL; Tmax ([2]; 2 mg/kg): 0.25 h; half-life ([2]; 2 mg/kg): 2.01 h
CCOc1cncc(-c2ccc(NC(=O)C3(c4ccnc(NS(=O)(=O)C5CC5)n4)CC(=CC4CCOCC4)C3)nc2)n1 (stereo not drawn) [Compound 48] | < 100 | < 30 | –
CCOc1cncc(-c2ccc(NC(=O)C3(c4ccnc(NS(=O)(=O)C5CC5)n4)CCC(=C(F)CN4CCOCC4)CC3)nc2)n1 (stereo not drawn) [Compound 54] | < 50 | < 50 | –
CCOc1cncc(-c2ccc(NC(=O)C3(c4ccnc(NS(=O)(=O)C5CC5)n4)CCC(=Cc4cccnc4)CC3)nc2)n1 (stereo not drawn) [Compound 55] | < 25 | < 50 | –
CCOc1cncc(-c2ccc(NC(=O)C3(c4ccnc(NS(=O)(=O)C5CC5)n4)CCC(=CC4(C)COC4)CC3)nc2)n1 (stereo not drawn) [Compound 62] | < 25 | < 15 | –
CCOc1cncc(-c2ccc(NC(=O)C3(c4ccnc(NS(=O)(=O)C5CC5)n4)CCC(=C(F)CC(C)(C)O)CC3)nc2)n1 (stereo not drawn) [Compound 67] | < 50 | < 50 | –

Further lines, with some results ahead:

IC50 [1] [nM] | IC50 [3, 4] [nM] | Compound | also measured
< 25 | < 30 | CCOc1cncc(-c2ccc(NC(=O)C3(c4ccnc(NS(=O)(=O)C5CC5)n4)CCC(=CF)CC3)nc2)n1 (stereo not drawn) [Compound 10] | AUC(0-t) ([2]; 3 mg/kg): 87200 ng·h/mL; Cmax ([2]; 3 mg/kg): 9330 ng/mL; Tmax ([2]; 3 mg/kg): 3.33 h; half-life ([2]; 3 mg/kg): 4.95 h
< 50 | < 30 | CCOc1cncc(-c2ccc(NC(=O)C3(c4ccnc(NS(=O)(=O)C5CC5)n4)CCC(=CCNC(C)=O)CC3)nc2)n1 (stereo not drawn) [Compound 22] | AUC(0-t) ([2]; 3 mg/kg): 137 ng·h/mL; Cmax ([2]; 3 mg/kg): 177 ng/mL; Tmax ([2]; 3 mg/kg): 0.25 h; half-life ([2]; 3 mg/kg): 1.64 h
< 50 | < 50 | CCOc1cncc(-c2ccc(NC(=O)C3(c4ccnc(NS(=O)(=O)C5CC5)n4)CCC(=CCNS(C)(=O)=O)CC3)nc2)n1 (stereo not drawn) [Compound 23] | –
< 50 | < 100 | CCOc1cncc(-c2ccc(NC(=O)C3(c4ccnc(NS(=O)(=O)C5CC5)n4)CCC(=CCN4CC(O)C4)CC3)nc2)n1 (stereo not drawn) [Compound 27] | –
< 100 | < 30 | CCOc1cncc(-c2ccc(NC(=O)C3(c4ccnc(NS(=O)(=O)C5CC5)n4)CCC(=CCN(C)CCOC)CC3)nc2)n1 (stereo not drawn) [Compound 29] | –
< 25 | < 30 | CCOc1cncc(-c2ccc(NC(=O)C3(c4ccnc(NS(=O)(=O)C5CC5)n4)CCC(=C(C)F)CC3)nc2)n1 (stereo not drawn) [Compound 37] | –
< 25 | < 15 | CCOc1cncc(-c2ccc(NC(=O)C3(c4ccnc(NS(=O)(=O)C5CC5)n4)CCC(=CCCO)CC3)nc2)n1 (stereo not drawn) [Compound 44] | AUC(0-t) ([2]; 2 mg/kg): 33 ng·h/mL; Cmax ([2]; 2 mg/kg): 10.5 ng/mL; Tmax ([2]; 2 mg/kg): 1.17 h; half-life ([2]; 2 mg/kg): 1.77 h
< 25 | < 30 | CCOc1cncc(-c2ccc(NC(=O)C3(c4ccnc(NS(=O)(=O)C5CC5)n4)CCC(=CCCOC)CC3)nc2)n1 (stereo not drawn) [Compound 45] | –
